Data as given in patent US10231954B2, “Neurodegenerative therapies” (LYTIX BIOPHARMA AS, priority 2014, dated 2019).
Where two headings read alike, the source gives them in different places.

What was measured:
Format in all cases: biochemical
YES1 = YES1 (Homo sapiens, UniProt P07947); experiment: Kinase profiling YES1; conditions: for remaining activity at 100 µM: read-out: residual kinase activity, YES1
Source text: (§1) Any value less that 25 is considered to be highly significant inhibition.

TTBK1 = TTBK1 (Homo sapiens, UniProt Q5TCY1); experiment: Kinase profiling TTBK1; conditions: for remaining activity at 100 µM: read-out: residual kinase activity, TTBK1
Source text: as §1

MINK1 = MINK1 (Homo sapiens, UniProt Q8N4C8); experiment: Kinase profiling MINK1; conditions: for remaining activity at 100 µM: read-out: residual kinase activity, MINK1
Source text: as §1

EPH-B4 = molecular target: T1, EPH-B4 (Homo sapiens, UniProt P54760); experiment: Kinase profiling EPH-B4; conditions: for remaining activity at 100 µM: read-out: residual kinase activity, EPH-B4
T1 sequence (P54760 16-987): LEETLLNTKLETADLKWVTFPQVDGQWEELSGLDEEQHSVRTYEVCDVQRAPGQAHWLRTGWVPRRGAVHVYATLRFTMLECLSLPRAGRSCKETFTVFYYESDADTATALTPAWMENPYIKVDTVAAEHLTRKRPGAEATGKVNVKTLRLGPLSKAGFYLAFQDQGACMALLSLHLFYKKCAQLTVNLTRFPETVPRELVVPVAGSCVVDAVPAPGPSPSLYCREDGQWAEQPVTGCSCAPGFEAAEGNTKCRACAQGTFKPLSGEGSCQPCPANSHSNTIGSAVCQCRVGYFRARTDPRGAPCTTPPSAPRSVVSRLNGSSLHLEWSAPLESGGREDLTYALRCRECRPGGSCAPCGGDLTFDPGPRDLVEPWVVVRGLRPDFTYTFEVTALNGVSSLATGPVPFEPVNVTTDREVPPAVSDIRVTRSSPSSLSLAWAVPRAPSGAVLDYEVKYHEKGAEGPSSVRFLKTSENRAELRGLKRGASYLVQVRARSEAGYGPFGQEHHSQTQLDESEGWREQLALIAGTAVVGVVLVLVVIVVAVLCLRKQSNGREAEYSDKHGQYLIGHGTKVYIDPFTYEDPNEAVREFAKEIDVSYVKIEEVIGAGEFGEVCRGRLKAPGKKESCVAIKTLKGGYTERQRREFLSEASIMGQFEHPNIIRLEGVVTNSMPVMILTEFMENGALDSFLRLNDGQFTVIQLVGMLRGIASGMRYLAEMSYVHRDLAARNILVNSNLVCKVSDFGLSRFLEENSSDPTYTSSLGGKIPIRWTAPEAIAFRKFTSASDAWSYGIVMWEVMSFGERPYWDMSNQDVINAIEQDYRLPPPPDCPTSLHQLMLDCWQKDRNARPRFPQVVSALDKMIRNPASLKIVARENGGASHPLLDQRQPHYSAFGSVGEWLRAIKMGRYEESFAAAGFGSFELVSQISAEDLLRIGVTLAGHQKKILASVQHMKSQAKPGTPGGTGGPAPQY
Source text: as §1

OSR1 = OSR1 (Homo sapiens, UniProt O95747); experiment: Kinase profiling OSR1; conditions: for remaining activity at 100 µM: read-out: residual kinase activity, OSR1
Source text: as §1

NUAK1 = molecular target: T2, NUAK1 (Homo sapiens, UniProt O60285); experiment: Kinase profiling NUAK1; conditions: for remaining activity at 100 µM: read-out: residual kinase activity, NUAK1
T2 sequence (O60285 1-661): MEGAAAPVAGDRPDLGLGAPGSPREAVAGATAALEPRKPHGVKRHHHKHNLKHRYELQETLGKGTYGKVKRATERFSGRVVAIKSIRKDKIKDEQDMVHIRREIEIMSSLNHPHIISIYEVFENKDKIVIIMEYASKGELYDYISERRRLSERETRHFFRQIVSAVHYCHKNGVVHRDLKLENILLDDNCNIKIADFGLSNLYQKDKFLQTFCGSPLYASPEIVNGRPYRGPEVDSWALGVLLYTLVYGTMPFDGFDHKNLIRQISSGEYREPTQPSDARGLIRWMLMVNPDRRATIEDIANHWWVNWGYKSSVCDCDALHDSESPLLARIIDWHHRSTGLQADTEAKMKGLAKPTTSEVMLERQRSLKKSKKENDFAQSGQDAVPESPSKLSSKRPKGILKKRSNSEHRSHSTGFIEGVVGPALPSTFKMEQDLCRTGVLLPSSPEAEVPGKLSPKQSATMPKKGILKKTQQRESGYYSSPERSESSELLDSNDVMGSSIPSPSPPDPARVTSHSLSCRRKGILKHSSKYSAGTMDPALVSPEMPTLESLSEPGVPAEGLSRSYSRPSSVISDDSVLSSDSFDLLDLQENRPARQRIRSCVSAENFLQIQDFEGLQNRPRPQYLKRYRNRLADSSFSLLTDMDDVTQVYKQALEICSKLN
Source text: as §1

Aurora A = molecular target: T3, Aurora A (Homo sapiens, UniProt O14965); experiment: Kinase profiling Aurora A; conditions: for remaining activity at 100 µM: read-out: residual kinase activity, Aurora A
T3 sequence (O14965 1-403): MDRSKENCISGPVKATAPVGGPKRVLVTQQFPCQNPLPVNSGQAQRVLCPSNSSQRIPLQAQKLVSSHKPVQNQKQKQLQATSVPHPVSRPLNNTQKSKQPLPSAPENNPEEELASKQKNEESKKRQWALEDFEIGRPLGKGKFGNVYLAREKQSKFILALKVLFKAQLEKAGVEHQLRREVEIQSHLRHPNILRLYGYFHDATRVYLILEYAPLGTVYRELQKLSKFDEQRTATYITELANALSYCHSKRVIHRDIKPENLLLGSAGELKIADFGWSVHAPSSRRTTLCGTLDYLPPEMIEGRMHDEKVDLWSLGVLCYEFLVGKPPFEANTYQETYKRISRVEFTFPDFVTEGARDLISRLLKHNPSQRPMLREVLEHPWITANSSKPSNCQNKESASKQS
Source text: as §1

PDGFRA = PDGFRA (Homo sapiens, UniProt P16234); experiment: Kinase profiling PDGFRA; conditions: for remaining activity at 100 µM: read-out: residual kinase activity, PDGFRA
Source text: as §1

MAP4K5 = MAP4K5 (Homo sapiens, UniProt Q9Y4K4); experiment: Kinase profiling MAP4K5; conditions: for remaining activity at 100 µM: read-out: residual kinase activity, MAP4K5
Source text: as §1

ERK5 = ERK5 (Homo sapiens, UniProt Q13164); experiment: Kinase profiling ERK5; conditions: for remaining activity at 100 µM: read-out: residual kinase activity, ERK5
Source text: as §1

[1] = 100 micromolar inhibitor concentration, 100 is no change
[2] = 100 micromolar inhibitor, 100 = no change

TTBK1, sequence (Q5TCY1 whole entry, species assumed): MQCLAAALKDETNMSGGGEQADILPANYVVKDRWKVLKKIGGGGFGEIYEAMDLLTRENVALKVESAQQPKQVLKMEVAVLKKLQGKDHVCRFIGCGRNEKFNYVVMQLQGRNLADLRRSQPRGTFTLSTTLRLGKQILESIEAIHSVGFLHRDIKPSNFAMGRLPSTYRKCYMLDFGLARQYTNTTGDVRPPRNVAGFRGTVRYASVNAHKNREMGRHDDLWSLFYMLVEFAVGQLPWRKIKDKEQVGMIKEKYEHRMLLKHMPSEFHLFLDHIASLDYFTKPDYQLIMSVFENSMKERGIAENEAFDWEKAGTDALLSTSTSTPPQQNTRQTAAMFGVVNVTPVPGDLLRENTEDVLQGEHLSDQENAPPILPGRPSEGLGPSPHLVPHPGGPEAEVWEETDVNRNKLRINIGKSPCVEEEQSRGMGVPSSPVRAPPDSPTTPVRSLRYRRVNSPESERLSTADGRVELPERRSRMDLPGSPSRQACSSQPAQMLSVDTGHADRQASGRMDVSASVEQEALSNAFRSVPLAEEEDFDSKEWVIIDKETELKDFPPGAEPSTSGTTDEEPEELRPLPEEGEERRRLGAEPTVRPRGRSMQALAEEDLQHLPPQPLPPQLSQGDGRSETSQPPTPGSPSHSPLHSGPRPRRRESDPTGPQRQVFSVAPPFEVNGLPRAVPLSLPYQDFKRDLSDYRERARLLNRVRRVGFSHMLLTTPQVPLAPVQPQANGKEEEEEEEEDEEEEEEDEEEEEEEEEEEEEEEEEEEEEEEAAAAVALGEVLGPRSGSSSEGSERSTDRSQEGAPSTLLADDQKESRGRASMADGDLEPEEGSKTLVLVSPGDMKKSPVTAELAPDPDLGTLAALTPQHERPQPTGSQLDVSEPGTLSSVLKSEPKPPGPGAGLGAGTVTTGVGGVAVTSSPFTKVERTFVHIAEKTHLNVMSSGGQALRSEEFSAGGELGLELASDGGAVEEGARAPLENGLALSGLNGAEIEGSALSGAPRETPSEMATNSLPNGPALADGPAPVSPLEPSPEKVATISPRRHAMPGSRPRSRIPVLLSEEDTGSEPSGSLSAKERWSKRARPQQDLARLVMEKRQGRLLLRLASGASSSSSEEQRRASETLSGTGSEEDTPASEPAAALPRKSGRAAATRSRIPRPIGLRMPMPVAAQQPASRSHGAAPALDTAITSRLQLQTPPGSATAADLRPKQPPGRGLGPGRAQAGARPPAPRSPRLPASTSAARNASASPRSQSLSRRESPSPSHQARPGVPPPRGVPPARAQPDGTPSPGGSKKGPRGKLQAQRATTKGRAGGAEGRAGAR
PDGFRA, sequence (P16234 24-1089, species assumed): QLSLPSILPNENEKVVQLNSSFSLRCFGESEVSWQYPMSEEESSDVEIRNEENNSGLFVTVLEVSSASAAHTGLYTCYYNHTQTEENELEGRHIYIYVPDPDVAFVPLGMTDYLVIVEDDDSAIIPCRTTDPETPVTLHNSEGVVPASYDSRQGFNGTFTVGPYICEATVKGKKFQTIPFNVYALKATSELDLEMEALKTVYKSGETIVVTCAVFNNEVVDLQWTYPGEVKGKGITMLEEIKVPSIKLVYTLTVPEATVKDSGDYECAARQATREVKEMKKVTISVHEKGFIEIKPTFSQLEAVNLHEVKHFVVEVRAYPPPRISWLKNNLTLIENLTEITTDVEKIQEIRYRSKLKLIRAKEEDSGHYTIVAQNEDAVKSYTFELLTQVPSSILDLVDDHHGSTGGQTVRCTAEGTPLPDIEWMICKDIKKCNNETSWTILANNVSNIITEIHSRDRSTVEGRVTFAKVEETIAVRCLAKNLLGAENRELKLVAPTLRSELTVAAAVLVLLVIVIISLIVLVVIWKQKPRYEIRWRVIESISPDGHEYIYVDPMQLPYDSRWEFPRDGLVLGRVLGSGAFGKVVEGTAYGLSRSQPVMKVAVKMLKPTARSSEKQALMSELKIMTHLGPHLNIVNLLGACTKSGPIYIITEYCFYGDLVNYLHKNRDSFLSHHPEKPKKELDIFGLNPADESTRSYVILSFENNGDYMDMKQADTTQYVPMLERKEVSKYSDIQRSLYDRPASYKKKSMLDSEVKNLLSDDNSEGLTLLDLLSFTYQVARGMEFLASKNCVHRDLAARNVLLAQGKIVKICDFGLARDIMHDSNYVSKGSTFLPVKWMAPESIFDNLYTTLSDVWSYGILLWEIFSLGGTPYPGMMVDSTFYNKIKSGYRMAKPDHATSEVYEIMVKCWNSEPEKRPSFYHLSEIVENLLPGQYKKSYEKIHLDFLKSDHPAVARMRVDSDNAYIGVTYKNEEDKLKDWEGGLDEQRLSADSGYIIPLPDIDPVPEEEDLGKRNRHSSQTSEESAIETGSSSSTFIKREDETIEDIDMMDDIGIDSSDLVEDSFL
OSR1, sequence (O95747 whole entry): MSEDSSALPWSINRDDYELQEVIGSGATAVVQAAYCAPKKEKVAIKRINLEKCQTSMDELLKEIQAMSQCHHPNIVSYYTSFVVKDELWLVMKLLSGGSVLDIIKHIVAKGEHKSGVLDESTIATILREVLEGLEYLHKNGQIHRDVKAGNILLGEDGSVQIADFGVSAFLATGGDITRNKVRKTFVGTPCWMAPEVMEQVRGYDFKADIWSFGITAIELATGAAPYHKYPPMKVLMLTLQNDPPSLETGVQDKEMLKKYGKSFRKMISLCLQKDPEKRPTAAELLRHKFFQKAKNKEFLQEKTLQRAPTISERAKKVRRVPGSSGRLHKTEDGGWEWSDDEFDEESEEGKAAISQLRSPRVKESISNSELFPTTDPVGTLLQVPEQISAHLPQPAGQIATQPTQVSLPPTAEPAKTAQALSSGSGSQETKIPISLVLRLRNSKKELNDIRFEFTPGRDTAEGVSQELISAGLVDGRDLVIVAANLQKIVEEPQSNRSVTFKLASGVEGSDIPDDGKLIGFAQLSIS
YES1, sequence (P07947 whole entry, species assumed): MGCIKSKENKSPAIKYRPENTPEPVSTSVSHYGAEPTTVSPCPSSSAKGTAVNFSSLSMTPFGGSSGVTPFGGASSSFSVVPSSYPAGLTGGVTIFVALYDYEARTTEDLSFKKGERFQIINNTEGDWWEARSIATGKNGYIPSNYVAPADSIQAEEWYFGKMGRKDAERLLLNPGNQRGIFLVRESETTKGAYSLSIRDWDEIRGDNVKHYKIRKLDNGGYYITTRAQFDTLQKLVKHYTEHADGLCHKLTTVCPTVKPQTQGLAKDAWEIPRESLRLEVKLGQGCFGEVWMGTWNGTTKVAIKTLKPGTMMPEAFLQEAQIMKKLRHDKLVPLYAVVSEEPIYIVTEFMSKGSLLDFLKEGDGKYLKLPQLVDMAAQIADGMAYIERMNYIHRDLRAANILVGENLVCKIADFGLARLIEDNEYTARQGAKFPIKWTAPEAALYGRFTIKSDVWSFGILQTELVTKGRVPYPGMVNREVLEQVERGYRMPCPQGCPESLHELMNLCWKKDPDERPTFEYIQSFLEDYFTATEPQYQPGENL
ERK5, sequence (Q13164 whole entry, species assumed): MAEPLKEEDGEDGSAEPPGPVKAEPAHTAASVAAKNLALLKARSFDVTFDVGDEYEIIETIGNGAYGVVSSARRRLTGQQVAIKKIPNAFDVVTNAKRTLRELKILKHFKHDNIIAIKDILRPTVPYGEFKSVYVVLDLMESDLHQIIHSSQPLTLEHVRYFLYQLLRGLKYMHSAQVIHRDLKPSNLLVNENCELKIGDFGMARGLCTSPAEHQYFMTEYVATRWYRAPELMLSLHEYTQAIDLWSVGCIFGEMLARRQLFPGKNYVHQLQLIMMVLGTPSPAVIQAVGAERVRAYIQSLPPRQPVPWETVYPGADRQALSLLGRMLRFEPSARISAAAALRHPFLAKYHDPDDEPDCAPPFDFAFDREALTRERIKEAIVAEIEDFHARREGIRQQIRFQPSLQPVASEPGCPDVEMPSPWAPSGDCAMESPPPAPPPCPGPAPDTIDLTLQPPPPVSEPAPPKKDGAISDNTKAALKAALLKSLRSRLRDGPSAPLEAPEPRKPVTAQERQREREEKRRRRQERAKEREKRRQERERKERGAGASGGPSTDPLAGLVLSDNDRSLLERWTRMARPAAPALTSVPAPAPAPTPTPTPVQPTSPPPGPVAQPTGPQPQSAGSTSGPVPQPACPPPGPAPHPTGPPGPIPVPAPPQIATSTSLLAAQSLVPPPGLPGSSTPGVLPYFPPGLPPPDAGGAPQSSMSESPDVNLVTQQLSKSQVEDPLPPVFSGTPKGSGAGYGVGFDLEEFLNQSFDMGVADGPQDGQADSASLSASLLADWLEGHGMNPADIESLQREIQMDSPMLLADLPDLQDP

`CC(=O)Nc1nc2cc(O)ccc2s1` [Compound 01-66, N-(5-hydroxybenzo[d]thiazol-2-yl)acetamide] was tested, and the remaining activity at 100 µM (YES1) was 72%, the remaining activity at 100 µM (TTBK1) was 68% and the remaining activity at 100 µM (MINK1) was 48%. The remaining activity at 100 µM (EPH-B4) was 83%, the remaining activity at 100 µM (OSR1) was 95% and the remaining activity at 100 µM (NUAK1) was 44%. It also gave a remaining activity at 100 µM (Aurora A) of 87%.
In the case of `CC(=O)Nc1nc2ccc(O)cc2s1` [Compound 01-71], the remaining activity at 100 µM (YES1; [1]) is reported as 59%, the remaining activity at 100 µM (TTBK1; [1]) is reported as 61% and the remaining activity at 100 µM (MINK1; [1]) is reported as 28%. The remaining activity at 100 µM (EPH-B4; [1]) was 98%, the remaining activity at 100 µM (OSR1; [1]) was 78% and the remaining activity at 100 µM (NUAK1; [1]) was 26%. For the same compound, the remaining activity at 100 µM (Aurora A; [1]) was 68%.
With `CC(=O)Nc1nc2ccc(C(F)(F)F)cc2s1` [Compound 01-90] the remaining activity at 100 µM (YES1; [1]) was 57%, the remaining activity at 100 µM (TTBK1; [1]) was 88% and the remaining activity at 100 µM (PDGFRA; [1]) was 30%. It also gave a remaining activity at 100 µM (MAP4K5; [1]) of 40%, a remaining activity at 100 µM (MINK1; [1]) of 35% and a remaining activity at 100 µM (EPH-B4; [1]) of 55%. It also gave a remaining activity at 100 µM (OSR1; [1]) of 75%, a remaining activity at 100 µM (NUAK1; [1]) of 66% and a remaining activity at 100 µM (Aurora A; [1]) of 81%.
With `CC(=O)Nc1nc2ccc(C#N)cc2s1` [Compound 01-94] the remaining activity at 100 µM (YES1; [1]) was 86%, the remaining activity at 100 µM (TTBK1; [1]) was 73% and the remaining activity at 100 µM (PDGFRA; [1]) was 40%. For the same compound, the remaining activity at 100 µM (MAP4K5; [1]) was 38%, the remaining activity at 100 µM (MINK1; [1]) was 40% and the remaining activity at 100 µM (EPH-B4; [1]) was 62%. The remaining activity at 100 µM (OSR1; [1]) was 79%, the remaining activity at 100 µM (NUAK1; [1]) was 46% and the remaining activity at 100 µM (Aurora A; [1]) was 61%.
In the case of `CC(=O)Nc1cccc(NC(=O)c2nc3ccc(O)cc3s2)c1` [Compound 03-07, N-(3-acetamidophenyl)-6-hydroxybenzo[d]thiazole-2-carboxamide], the remaining activity at 100 µM (YES1; [2]) is reported as 49%, the remaining activity at 100 µM (TTBK1; [2]) is reported as 93% and the remaining activity at 100 µM (PDGFRA; [2]) is reported as 44%. It also gave a remaining activity at 100 µM (MAP4K5; [2]) of 56%, a remaining activity at 100 µM (ERK5; [2]) of 48% and a remaining activity at 100 µM (MINK1; [2]) of 18%. The remaining activity at 100 µM (EPH-B4; [2]) was 100%, the remaining activity at 100 µM (OSR1; [2]) was 87% and the remaining activity at 100 µM (NUAK1; [2]) was 37%. It also gave a remaining activity at 100 µM (Aurora A; [2]) of 110%.
`O=C(Nc1nc2cc(O)ccc2s1)c1ccncc1` [Compound 03-11] was tested, and the “residual kinase activity, YES1” value (YES1; [1]) was 82, the “residual kinase activity, TTBK1” value (TTBK1; [1]) was 99 and the “residual kinase activity, PDGFRA” value (PDGFRA; [1]) was 63. For the same compound, the “residual kinase activity, MAP4K5” value (MAP4K5; [1]) was 92, the “residual kinase activity, ERK5” value (ERK5; [1]) was 58 and the “residual kinase activity, MINK1” value (MINK1; [1]) was 63. The “residual kinase activity, EPH-B4” value (EPH-B4; [1]) was 97, the “residual kinase activity, OSR1” value (OSR1; [1]) was 90 and the “residual kinase activity, NUAK1” value (NUAK1; [1]) was 86. The “residual kinase activity, Aurora A” value (Aurora A; [1]) was 106.
With `O=C(Nc1nc2ccc(O)cc2s1)c1ccccn1` [Compound 03-12] the “residual kinase activity, YES1” value (YES1; [1]) was 73, the “residual kinase activity, TTBK1” value (TTBK1; [1]) was 91 and the “residual kinase activity, PDGFRA” value (PDGFRA; [1]) was 56. The “residual kinase activity, MAP4K5” value (MAP4K5; [1]) was 74, the “residual kinase activity, ERK5” value (ERK5; [1]) was 53 and the “residual kinase activity, MINK1” value (MINK1; [1]) was 48. The “residual kinase activity, EPH-B4” value (EPH-B4; [1]) was 84, the “residual kinase activity, OSR1” value (OSR1; [1]) was 59 and the “residual kinase activity, NUAK1” value (NUAK1; [1]) was 52. The “residual kinase activity, Aurora A” value (Aurora A; [1]) was 95.
`O=C(Nc1nc2cc(O)ccc2s1)c1ccccn1` [Compound 03-13] was tested, and the “residual kinase activity, YES1” value (YES1; [1]) was 60, the “residual kinase activity, TTBK1” value (TTBK1; [1]) was 100 and the “residual kinase activity, PDGFRA” value (PDGFRA; [1]) was 43. The “residual kinase activity, MAP4K5” value (MAP4K5; [1]) was 50, the “residual kinase activity, ERK5” value (ERK5; [1]) was 51 and the “residual kinase activity, MINK1” value (MINK1; [1]) was 31. For the same compound, the “residual kinase activity, EPH-B4” value (EPH-B4; [1]) was 88, the “residual kinase activity, OSR1” value (OSR1; [1]) was 97 and the “residual kinase activity, NUAK1” value (NUAK1; [1]) was 64. For the same compound, the “residual kinase activity, Aurora A” value (Aurora A; [1]) was 93.
With `COc1ccc2sc(NC(C)=O)nc2c1` [Compound 03-21] the remaining activity at 100 µM (YES1; [1]) was 93%, the remaining activity at 100 µM (TTBK1; [1]) was 93% and the remaining activity at 100 µM (PDGFRA; [1]) was 87%. The remaining activity at 100 µM (MAP4K5; [1]) was 96%, the remaining activity at 100 µM (ERK5; [1]) was 57% and the remaining activity at 100 µM (MINK1; [1]) was 61%. It also gave a remaining activity at 100 µM (EPH-B4; [1]) of 98%, a remaining activity at 100 µM (OSR1; [1]) of 119% and a remaining activity at 100 µM (NUAK1; [1]) of 84%. For the same compound, the remaining activity at 100 µM (Aurora A; [1]) was 103%.
For `CC(=O)Nc1cccc(C(=O)Nc2nc3ccc(O)cc3s2)c1` [Compound 03-58], the “residual kinase activity, ERK5” value (ERK5; [1]) was 31.
For `CC(=O)NC(C)C(=O)Nc1nc2ccc(C(F)(F)F)cc2s1` (centres unmarked) [Compound 03-80], the “residual kinase activity, ERK5” value (ERK5; [1]) was 27.
`CC(=O)Nc1ccccc1C(=O)Nc1nc2ccc(O)cc2s1` [Compound 08-39] was tested, and the “residual kinase activity, ERK5” value (ERK5; [1]) was 47.
For `COc1ccc2sc(NC(=O)c3ccc(NC(C)=O)cc3)nc2c1` [MS:LY-2-77], the “residual kinase activity, ERK5” value (ERK5; [1]) was 74.
In the case of `COc1ccc2sc(NC(=O)c3cccc(NC(C)=O)c3)nc2c1` [MS:LY-2-85], the “residual kinase activity, ERK5” value (ERK5; [1]) is reported as 45.
For `CC(=O)Nc1ccc(C(=O)Nc2nc3cc(O)ccc3s2)cc1` [MS:LY-2-87], the “residual kinase activity, ERK5” value (ERK5; [1]) was 54.
`CC(=O)Nc1cccc(C(=O)Nc2nc3cc(O)ccc3s2)c1` [MS:LY-2-89] was tested, and the “residual kinase activity, ERK5” value (ERK5; [1]) was 32.
